Common to all, as to assay: biochemical
What all share (type): binding

The target in experiment [1] is T1, DRA1*0101/DRB1*0101 (Homo sapiens, UniProt P01903+P01911, A100R/D57E/F55L/F60I/F76Y/I96L/L162R/M171V/P40L/Q125E/R42F/V115G/Y59C).
T1 construct: made in house

In experiment [2] the target is DRA1*0101/DRB1*0301 (Homo sapiens, UniProt P01903+P01911, A100K/A102G/A103R/A169T/F55Y/I96L/K41T/L162R/M171V/P40S/Q125H/Q178H/Q39Y/R42S/S66N/T106N/T262R/W38E/Y61H).
Experiment [3] addresses DRA1*0101/DRB1*0302 (Homo sapiens, UniProt P01903+P01911, A100K/A102G/A103R/A169T/D57E/F76Y/I96L/K41T/L162R/M171V/P40S/Q125H/Q178H/Q39Y/R42S/S66N/T106N/T262R/V115G/W38E/Y61H).
The target in experiment [4] is T2, DRA1*0101/DRB1*0401 (Homo sapiens, UniProt P01903+P01911, A100K/A169T/F76Y/I96L/K127E/L162R/M171V/N62H/P40V/Q125Y/R42H/S133A/S149N/S66Y/V115G/V209L/W38E).
T2 construct: made in house

The target of experiment [5] is DRA1*0101/DRB3*0301 (Homo sapiens, UniProt P01903+P79483, A169T/A212P/D57E/G115V/L67V/Q178H/R103Q/R40L/Y55F).
Chain of DRA1*0101/DRB3*0301 (P01903 26-254 limits assumed): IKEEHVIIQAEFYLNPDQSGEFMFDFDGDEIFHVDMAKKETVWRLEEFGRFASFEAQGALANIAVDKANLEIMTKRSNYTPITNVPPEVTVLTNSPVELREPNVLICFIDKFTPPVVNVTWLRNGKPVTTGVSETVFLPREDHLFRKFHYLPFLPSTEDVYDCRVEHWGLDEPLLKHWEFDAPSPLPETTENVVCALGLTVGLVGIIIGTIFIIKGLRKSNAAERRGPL
Chain of DRA1*0101/DRB3*0301 (P79483 30-266 R40L/Y55F/D57E/L67V/R103Q/G115V/A169T/Q178H/A212P limits assumed): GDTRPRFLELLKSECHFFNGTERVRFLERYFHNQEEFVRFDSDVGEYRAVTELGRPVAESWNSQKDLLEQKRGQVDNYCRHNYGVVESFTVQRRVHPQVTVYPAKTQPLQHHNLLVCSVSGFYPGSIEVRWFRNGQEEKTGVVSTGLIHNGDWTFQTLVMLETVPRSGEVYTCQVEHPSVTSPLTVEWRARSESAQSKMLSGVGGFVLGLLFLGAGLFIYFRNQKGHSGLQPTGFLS

Where no end group is shown, it is not given here.

Chain of DRA1*0101/DRB1*0301 (P01903 26-254 limits assumed, other chains not shown): as the sequence (P01903 26-254 limits assumed) above

For “YILLKKILSSRFNQM [hypothetical protein 239–253, reference compound]”, the Kd – broadly, the constant that tells how readily two partners part at equilibrium – is 435 nM in experiment [1]; 20 nM in experiment [2]; 156 nM in experiment [3]; 107 nM in experiment [4]; 3 nM in experiment [5].
